Consider 23 compounds from US8685974B2 (Bayer CropScience AG, priority 2009, dated 2014).

Structures are written as SMILES. Like-named read-outs stand apart in the source and are kept apart here. Marks after values point to notes of the source that are not given here.

Data set [1] is described as follows: physchem. The conditions noted are these: pH 2.7.
Data set [2] deals with Alternaria solani. Briefly: Alternaria test (tomato) / protective. In kind it is in vivo. To be noted: 500 ppm active compound, protective spray, evaluated 7 days after inoculation. The method in brief:
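Efficacy scored 7 days after inoculation, where 100% means no infection and 0% matches the untreated control. Test plants were young tomatoes given a protective spray at the stated rate, compound dissolved in DMF plus emulsifier and diluted with water. Incubation at 20° C, 96% relative humidity.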

Data set [3] relates to Pyrenophora teres. Briefly: In vivo test on Pyrenophora teres (barley net blotch). To be noted: dose of 500 ppm; barley plants; grading 12 days after contamination. The procedure:
In Vivo Test on Pyrenophora teres (Barley Net Blotch)
The active ingredients tested are prepared by homogenization in a mixture of acetone/Tween/DMSO, then diluted with water to obtain the desired active material concentration.
Barley plants (Plaisant variety), sown on a 50/50 peat soil-pozzolana substrate in starter cups and grown at 12° C., are treated at the 1-leaf stage (10 cm tall) by spraying with the active ingredient prepared as described above.
Plants, used as controls, are treated with an aqueous solution not containing the active material.
After 24 hours, the plants are contaminated by spraying them with an aqueous suspension of Pyrenophora teres spores (12,000 spores per ml). The spores are collected from a 12-day-old culture. The contaminated barley plants are incubated for 24 hours at about 20° C. and at 100% relative humidity, and then for 12 days at 80% relative humidity.
Grading is carried out 12 days after the contamination, in comparison with the control plants.

In data set [4] the test system is Fusarium graminearum. In kind it is cell-based. The conditions noted are these: 50 μM; for % Inhibition of DON/AcDON at 50 μM: 7 days at 28° C.
The conditions of data set [5]: pH 2.7.

Regarding `CC(C)Nc1nccc(CC(=O)c2ccc(Cl)s2)n1`, the log p in data set [1] came out at 2.37.
Regarding `Cc1ccc(-c2nn(C(C)C)cc2-c2ccncc2)s1` [Example 199], in data set [2], the efficacy came to 89%. For the same compound, the protection in data set [3] stood at 95%. Moreover, in data set [4], the “% Inhibition of fungal growth at 50 μM” value is 100% and the “% Inhibition of DON/AcDON at 50 μM” value was found to be 99%. In addition, the log p in data set [5] was 1.5^[b].
For `CCC(C)n1cc(-c2ccnc(NC(=O)[C@H](C)O)c2)c(-c2ccc(Cl)s2)n1` (stereo partly drawn) [Example 204], in that order: 80%, 80%, 56%, 95% and 3.13^[b].
For `CC(C)n1cc(-c2ccnc(NC(=O)[C@H](C)O)c2)c(-c2ccc(Cl)s2)n1` [Example 205], in that order: 90%, 95%, 84%, 98% and 2.75^[b].
The compound `CCC(C)n1cc(-c2ccnc(NC(=O)COC)c2)c(-c2ccc(Cl)s2)n1` (stereo not drawn) [Example 223] had an efficacy in data set [2] of 95%. This compound showed a protection in data set [3] of 95%. Further, in data set [4], the “% Inhibition of fungal growth at 50 μM” value is given as 79% and the “% Inhibition of DON/AcDON at 50 μM” value is 99%. Further, the log p in data set [5] is 3.68^[b].
For `CCC(C)n1cc(-c2ccnc(NC(=O)N(C)C)c2)c(-c2ccc(Cl)s2)n1` (stereo not drawn) [Example 227], the efficacy in data set [2] came out at 80%. Moreover, the protection in data set [3] stood at 95%. For the same compound, in data set [4], the “% Inhibition of fungal growth at 50 μM” value is on record as 100% and the “% Inhibition of DON/AcDON at 50 μM” value is listed as 99%. For the same compound, the log p in data set [5] is 2.19^[b].
The compound `CCC(C)C(=O)Nc1cc(-c2cn(C(C)CC)nc2-c2ccc(Cl)s2)ccn1` (stereo not drawn) [Example 228] had an efficacy in data set [2] of 70%. This compound also showed a protection in data set [3] of 90%. Moreover, in data set [4], the “% Inhibition of fungal growth at 50 μM” value is 49% and the “% Inhibition of DON/AcDON at 50 μM” value amounted to 92%. Further, the log p in data set [5] was 4.05^[b].
In data set [2], `CCC(C)n1cc(-c2ccnc(NC(=O)CC3CC3)c2)c(-c2ccc(Cl)s2)n1` (stereo not drawn) [Example 229] came in with an efficacy of 95%. For the same compound, in data set [3], the protection was determined as 90%. Besides, in data set [4], the “% Inhibition of fungal growth at 50 μM” value is on record as 82% and the “% Inhibition of DON/AcDON at 50 μM” value is given as 98%. Further, in data set [5], the log p is 3.81^[b].
The corresponding values for `CCC(C)n1cc(-c2ccnc(NC(=O)CC(C)C)c2)c(-c2ccc(Cl)s2)n1` (stereo not drawn) [Example 235] are 95%, 95%, 0%, 86% and 4.08^[b].
Turning to `CCC(C)n1cc(-c2ccnc(NC(=O)C3CCC3)c2)c(-c2ccc(Cl)s2)n1` (stereo not drawn) [Example 240], in data set [2], the efficacy is 95%. In data set [3], the protection was determined as 90%. Moreover, in data set [4], the “% Inhibition of fungal growth at 50 μM” value is listed as 37% and the “% Inhibition of DON/AcDON at 50 μM” value is on record as 99%. The log p in data set [5] was 3.81^[b].
Consider `CC(C)n1cc(-c2ccnc(NC(=O)CC3CC3)c2)c(-c2ccc(Cl)s2)n1` [Example 250], for which the efficacy in data set [2] came out at 90%. Further, the protection in data set [3] is 100%. Further, in data set [4], the “% Inhibition of fungal growth at 50 μM” value is 29% and the “% Inhibition of DON/AcDON at 50 μM” value came out at 99%. In addition, the log p in data set [5] is 3.37^[b].
For the compound `CCn1cc(-c2ccnc(NC(=O)CC3CC3)c2)c(-c2ccc(Cl)s2)n1` [Example 253], in data set [2], the efficacy came to 95%. Also, the protection in data set [3] is recorded as 100%. Also, in data set [4], the “% Inhibition of fungal growth at 50 μM” value was determined as 100% and the “% Inhibition of DON/AcDON at 50 μM” value came out at 99%. Moreover, the log p in data set [5] is 2.94^[b].
As for `CCn1cc(-c2ccnc(NC(=O)COC)c2)c(-c2ccc(Cl)s2)n1` [Example 261], the efficacy in data set [2] is reported as 90%. The protection in data set [3] was found to be 90%. In addition, in data set [4], the “% Inhibition of fungal growth at 50 μM” value turned out to be 96% and the “% Inhibition of DON/AcDON at 50 μM” value is 98%. Besides, in data set [5], the log p is 2.78^[b].
`CC(C)CC(=O)Nc1cc(-c2cn(C)nc2-c2ccc(Cl)s2)ccn1` [Example 270]: in data set [2], the efficacy worked out at 95%. For the same compound, the protection in data set [3] was 95%. Also, in data set [4], the “% Inhibition of fungal growth at 50 μM” value worked out at 49% and the “% Inhibition of DON/AcDON at 50 μM” value came out at 98%. Moreover, the log p in data set [5] was 2.75^[b].
In data set [2], `COCC(=O)Nc1cc(-c2cn(C)nc2-c2ccc(Cl)s2)ccn1` [Example 276] registered an efficacy of 90%. The protection in data set [3] is reported as 80%. In addition, in data set [4], the “% Inhibition of fungal growth at 50 μM” value amounted to 98% and the “% Inhibition of DON/AcDON at 50 μM” value is on record as 98%. The log p in data set [5] was 2.4^[b].
With `CC(=O)N(C(C)=O)c1cc(-c2cnn(/C=C/F)c2-c2ccc(Cl)s2)ccn1` [Example 291], in data set [2], the efficacy is listed as 90%. Further, in data set [3], the protection stood at 95%. For the same compound, in data set [4], the “% Inhibition of fungal growth at 50 μM” value is given as 18% and the “% Inhibition of DON/AcDON at 50 μM” value came to 100%. In addition, the log p in data set [5] is 3.39^[b].
In data set [2], `CC(=O)Nc1cc(-c2cn(/C=C/F)nc2-c2ccc(Cl)s2)ccn1` [Example 293] showed an efficacy of 80%. The compound further yielded a protection in data set [3] of 90%. In data set [4], the “% Inhibition of fungal growth at 50 μM” value is given as 32% and the “% Inhibition of DON/AcDON at 50 μM” value came out at 100%. The log p in data set [5] was 2.52^[b].
`CC(=O)N(C(C)=O)c1cc(-c2cn(/C=C/F)nc2-c2ccc(Cl)s2)ccn1` [Example 297]: in data set [2], the efficacy was 90%. In data set [3], this compound had a protection of 80%. In data set [4], the “% Inhibition of fungal growth at 50 μM” value is given as 0% and the “% Inhibition of DON/AcDON at 50 μM” value was found to be 100%. The log p in data set [5] was 3.09^[b].
In turn, `CC(=O)N(C(C)=O)c1cc(-c2cn(C)nc2-c2ccc(Cl)s2)ccn1` [Example 303] showed an efficacy in data set [2] of 95%. In data set [3], this compound gave a protection of 70%. Moreover, in data set [4], the “% Inhibition of fungal growth at 50 μM” value came to 83% and the “% Inhibition of DON/AcDON at 50 μM” value amounted to 100%. In addition, the log p in data set [5] is 2.52^[b].
For `N#CCCn1cc(-c2ccncc2)c(-c2ccc(F)s2)n1` [Example 340], the efficacy in data set [2] is recorded as 94%. In data set [3], this compound showed a protection of 70%. Also, in data set [4], the “% Inhibition of fungal growth at 50 μM” value was determined as 91% and the “% Inhibition of DON/AcDON at 50 μM” value stood at 98%. In addition, the log p in data set [5] is 1.12^[b].
On to `N#CCCn1cc(-c2ccncc2)c(-c2ccc(Br)s2)n1` [Example 350], for which the efficacy in data set [2] came to 80%. The compound further had a protection in data set [3] of 90%. Besides, in data set [4], the “% Inhibition of fungal growth at 50 μM” value is given as 92% and the “% Inhibition of DON/AcDON at 50 μM” value is given as 99%. Further, the log p in data set [5] was 1.42^[b].
In the case of `FC(F)Cn1cc(-c2ccncc2)c(-c2ccc(Cl)s2)n1` [Example 363], the efficacy in data set [2] was 100%. The compound also displayed a protection in data set [3] of 90%. In addition, in data set [4], the “% Inhibition of fungal growth at 50 μM” value was determined as 99% and the “% Inhibition of DON/AcDON at 50 μM” value was determined as 99%. For the same compound, in data set [5], the log p was 1.61^[b].
`CCOCCn1cc(-c2ccncc2)c(-c2ccc(Cl)s2)n1` [Example 364]: in data set [2], the efficacy stood at 100%. The compound also came in with a protection in data set [3] of 70%. Moreover, in data set [4], the “% Inhibition of fungal growth at 50 μM” value is given as 100% and the “% Inhibition of DON/AcDON at 50 μM” value came out at 99%. In data set [5], the log p is 1.69^[b].
